According to PubChem BioAssay AID588780 (Sanford-Burnham Center for Chemical Genomics, 2011):
Activity calls are given as the source filed them.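 How the source made its calls: active means compounds whose fitted half-maximal concentration in the cell-protection dose series is at or below a set limit; inactive means the rest.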

System: H9c2 cardiomyocytes, 2-deoxyglucose stress, ATP luminescence, 2 h
Experiment: H9c2 cell survival under 2-deoxyglucose stress – uHTS hits, dose response (AID 588780)

Question: For `O=C(COC(=O)c1ccc([N+](=O)[O-])o1)Nc1ccc(N2CCOCC2)cc1`, which IC50 is on record?
Answer: Its IC50 is > 79 µM (inactive).

Question: For `CCOC(=O)C1=C(C)NC(C)=C(C(=O)OCC)C1C(=O)OCC(=O)NC(C)C`, which IC50 is on record?
Answer: The IC50 was 19.7 µM.

Question: `CCC(=O)N1CCN(c2ccccc2NC(=O)COc2cc(C)ccc2C(C)C)CC1` was tested. Which IC50 did it give?
Answer: The IC50 was 11.5 µM.

Question: For `Cc1cccc(OCCn2c(NC(=O)c3ccco3)nc3ccccc32)c1`, which IC50 is on record?
Answer: Its IC50 is 17.8 µM.

Question: For `COc1cc(C(=O)N/N=C/c2ccc(OC(=O)c3cccc(C)c3)c(OC)c2)ccc1O`, which IC50 is on record?
Answer: The IC50 was > 79 µM (inactive).

Question: For `CCOc1cc(/C=C(\C#N)C(=O)Nc2ccc(S(N)(=O)=O)cc2)ccc1OCCN1CCOCC1`, which IC50 is on record?
Answer: Its IC50 is > 79 µM (inactive).

Question: With `O=C(COc1ccccc1[N+](=O)[O-])Nc1ccc(N2CCN(C(=O)c3cccs3)CC2)cc1` as the compound, how does the IC50 read?
Answer: The IC50 was 8.51 µM.

Question: Which IC50 does the source give for `O=c1[nH]c2cccc(F)c2n2cccc12` here?
Answer: Its IC50 is 8.05 µM.

Question: With `CCOC(=O)Cc1csc(NC(=O)NC2(C(F)(F)F)Oc3ccccc3O2)n1` as the compound, how does the IC50 read?
Answer: Its IC50 is 35.3 µM (inactive).

Question: How did the IC50 turn out when `Cc1ccc(-c2csc(N3CCC[C@@H]3C(=O)NCCn3c(-c4ccncc4)nc4ccccc43)n2)cc1` was run?
Answer: Its IC50 is > 79 µM (inactive).

Question: For `O=C(COC(=O)Cc1n[nH]c(=O)c2ccccc12)Nc1ccc(Cl)cn1`, which IC50 is on record?
Answer: Its IC50 is > 79 µM (inactive).

Question: How did the IC50 turn out when `Cc1sc2nc(SCC(=O)N3CCOCC3)[nH]c(=O)c2c1C` was run?
Answer: The IC50 was > 79 µM (inactive).

Question: Which IC50 does the source give for `O=C(N/N=C/c1ccccn1)c1cc(-c2cccc3ccccc23)n[nH]1` here?
Answer: Its IC50 is > 79 µM (inactive).

Question: With `O=c1cc(-c2ccc([N+](=O)[O-])cc2)c2ccc(O)cc2o1` as the compound, how does the IC50 read?
Answer: The IC50 was > 79 µM (inactive).

Question: With `CCOc1cc(/C=C/c2ccc3cccc([N+](=O)[O-])c3n2)ccc1OCC(=O)N(C)C` as the compound, how does the IC50 read?
Answer: The IC50 was 12.5 µM.

Question: How did the IC50 turn out when `CCC(=O)Oc1cccc(C(=O)Nc2ccc(-c3nnc(-c4ccco4)o3)cc2)c1` was run?
Answer: Its IC50 is > 79 µM (inactive).

Question: With `Cc1[nH]c2ccccc2c1/C=N/NC(=O)c1cc(-c2cccs2)[nH]n1` as the compound, how does the IC50 read?
Answer: Its IC50 is > 79 µM (inactive).

Question: Which IC50 does the source give for `Cc1cc(C)cc(C(=O)Nc2ccc(NC(=O)c3cccs3)cc2)c1` here?
Answer: The IC50 was > 79 µM (inactive).

Question: How did the IC50 turn out when `Brc1ccc(-c2nn3c(-c4ccco4)nnc3s2)o1` was run?
Answer: Its IC50 is 20 µM.

Question: With `COc1cc(-c2cc(C(=O)N3CCN(c4ccccn4)CC3)c3ccccc3n2)cc(OC)c1OC` as the compound, how does the IC50 read?
Answer: Its IC50 is 14.4 µM.

Question: `COc1cccc(OC)c1-c1nn2c(-c3ccco3)nnc2s1` was tested. Which IC50 did it give?
Answer: Its IC50 is > 79 µM (inactive).

Question: With `COc1ccccc1NC(=O)COc1ccc(/C=N/NC(=O)c2cccnc2)cc1` as the compound, how does the IC50 read?
Answer: Its IC50 is 14.8 µM.

Question: For `COc1ccc(NC(=O)c2cc3c(=O)n(C)c4ccccc4c3n2C)cc1OC`, which IC50 is on record?
Answer: Its IC50 is > 79 µM (inactive).

Question: For `CCOc1cc(-c2cc(-c3ccc(N)cc3)nc(N)c2C#N)ccc1O`, which IC50 is on record?
Answer: Its IC50 is 12.3 µM.

Question: How did the IC50 turn out when `O=C(c1cc(=O)[nH]c2ccccc12)N1CCN(S(=O)(=O)c2ccc(Cl)cc2)CC1` was run?
Answer: The IC50 was > 79 µM (inactive).

Question: For `COc1cccc(C(c2nnnn2Cc2ccccc2)N2CCN(C3CCCC3)CC2)c1OC` (configuration not stated), which IC50 is on record?
Answer: Its IC50 is 35.5 µM (inactive).

Question: With `COc1cccc(-c2ccc(SCC(=O)N3CCN(c4ccccc4)CC3)nn2)c1` as the compound, how does the IC50 read?
Answer: The IC50 was > 79 µM (inactive).

Question: With `O=C(CNC(=O)c1[nH]cnc1C(=O)NC(c1ccccc1)c1ccccc1)OCc1ccccc1` as the compound, how does the IC50 read?
Answer: Its IC50 is 13.1 µM.

Question: `CCCCCCn1c(C)nc2c(c1=O)c1nc3ccccc3nc1n2/N=C/c1ccco1` was tested. Which IC50 did it give?
Answer: Its IC50 is > 79 µM (inactive).

Question: `O=C(Nc1cccc(N=Cc2cc(Cl)cc(Br)c2O)c1)c1ccco1` was tested. Which IC50 did it give?
Answer: The IC50 was 26.5 µM.

Question: Which IC50 does the source give for `CC1(C)CC2CC(C)(CN2C(=O)COC(=O)Cn2[nH]c(=O)c3ccccc3c2=O)C1` (configuration not stated) here?
Answer: Its IC50 is > 79 µM (inactive).

Question: For `COc1cc2c(cc1OC)CN(c1nc(-c3cccnc3)nc3ccccc13)CC2`, which IC50 is on record?
Answer: Its IC50 is > 79 µM (inactive).

Question: `CCOC(=O)c1ccc(-c2ccc(/C=C(\C#N)C(=O)NCC3CCCO3)o2)cc1` (configuration not stated) was tested. Which IC50 did it give?
Answer: Its IC50 is > 79 µM (inactive).

Question: How did the IC50 turn out when `Cc1cc(N)n(-c2nc(-c3cccnc3)nc3ccccc23)n1` was run?
Answer: The IC50 was 19.8 µM.

Question: With `COc1ccc(-n2cc(-c3ccccc3)c3c(N4CCOCC4)ncnc32)cc1` as the compound, how does the IC50 read?
Answer: Its IC50 is > 79 µM (inactive).

Question: With `CCNC(=O)/C(C#N)=C/c1c(N(Cc2ccccc2)Cc2ccccc2)nc2ccccn2c1=O` as the compound, how does the IC50 read?
Answer: The IC50 was 24.6 µM.

Question: Which IC50 does the source give for `Cn1c(=O)c2[nH]c(NN=Cc3cccc(Br)c3)nc2n(C)c1=O` here?
Answer: Its IC50 is > 79 µM (inactive).

Question: Which IC50 does the source give for `O=C(Cn1[nH]c(=O)c2ccccc2c1=O)N1CC=C(c2ccccc2)CC1` here?
Answer: Its IC50 is 21 µM.

Question: How did the IC50 turn out when `O=C(CCc1nc2ccccc2c(=O)[nH]1)NNC(=O)c1cccc(Cl)c1` was run?
Answer: The IC50 was > 79 µM (inactive).

Question: With `CN(CC(=O)Nc1ccc(F)cc1)C(=O)CCc1nc2ccccc2c(=O)[nH]1` as the compound, how does the IC50 read?
Answer: The IC50 was > 79 µM (inactive).

Question: `O=C(CSc1nc2ccccc2c(=O)[nH]1)N1CCN(S(=O)(=O)c2ccccc2)CC1` was tested. Which IC50 did it give?
Answer: The IC50 was > 79 µM (inactive).

Question: For `Cn1c(-n2c(CCCN3C(=O)c4ccccc4C3=O)nc3ccccc3c2=O)nc2ccccc21`, which IC50 is on record?
Answer: Its IC50 is 26.4 µM.

Question: For `COc1ccc(-c2ccc3c(c2)S(=O)(=O)c2cccc(C(=O)NC[C@@H]4CCCO4)c2C3=O)cc1OC`, which IC50 is on record?
Answer: The IC50 was 12.8 µM.

Question: With `COc1ccc(C(C(=O)NC2CCCCC2)N(Cc2cccs2)C(=O)Cc2c[nH]c3ccccc23)cc1OC` (configuration not stated) as the compound, how does the IC50 read?
Answer: Its IC50 is 12.5 µM.

Question: With `CC(Oc1ccc(F)cc1)C(=O)Nc1nc(-c2ccccn2)cs1` (configuration not stated) as the compound, how does the IC50 read?
Answer: Its IC50 is 37.5 µM (inactive).

Question: For `COCCN1Cc2cccc(C(=O)Nc3cccc(-c4nc5ccccc5[nH]4)c3)c2C1=O`, which IC50 is on record?
Answer: The IC50 was > 79 µM (inactive).

Question: How did the IC50 turn out when `CN(C(=O)Cn1nc(C(=O)O)c2ccccc2c1=O)C1(C#N)CCCCC1` was run?
Answer: Its IC50 is > 79 µM (inactive).

Question: `C[C@H](CO)N1C[C@H](C)[C@@H](CN(C)S(=O)(=O)c2ccccc2)Oc2ccc(NC(=O)Nc3ccccc3)cc2C1=O` was tested. Which IC50 did it give?
Answer: Its IC50 is 24.2 µM.

Question: `Cc1c(Cl)cnc(NC(=O)COC(=O)c2ccc([N+](=O)[O-])s2)c1Cl` was tested. Which IC50 did it give?
Answer: Its IC50 is > 79 µM (inactive).

Question: For `CCN(CC)C(=O)c1ccc2c3c(cccc13)C(=O)N(CCc1ccc(OC)c(OC)c1)C2=O`, which IC50 is on record?
Answer: The IC50 was 11.5 µM.

Question: How did the IC50 turn out when `CC(OC(=O)CCc1nc2ccccc2c(=O)[nH]1)C(=O)NC1CCCC1` (configuration not stated) was run?
Answer: Its IC50 is 57.3 µM (inactive).

Question: Which IC50 does the source give for `COc1ccccc1N1CCN(C(=O)c2ccc3nc(-c4ccco4)c(-c4ccco4)nc3c2)CC1` here?
Answer: The IC50 was 17.6 µM.

Question: With `CCN(CC(=O)Nc1cc(Cl)ccc1C)C(=O)C1CCN(c2ncnc3sc(C)c(C)c23)CC1` as the compound, how does the IC50 read?
Answer: The IC50 was > 79 µM (inactive).

Question: With `COc1cc(-c2nnc(COC(=O)c3cc(C)nc4ccc(C)cc34)o2)cc(OC)c1OC` as the compound, how does the IC50 read?
Answer: Its IC50 is 15.6 µM.

Question: Which IC50 does the source give for `CCC(C)N(C(=O)COC(=O)Cc1n[nH]c(=O)c2ccccc12)C1CCS(=O)(=O)C1` (configuration not stated) here?
Answer: Its IC50 is > 79 µM (inactive).

Question: For `COc1cc(/C=C/c2nnc3c4ccccc4ncn23)cc(OC)c1OC`, which IC50 is on record?
Answer: The IC50 was > 79 µM (inactive).

Question: For `Cc1cc(Cl)ccc1OCCCC(=O)NNC(=O)c1ccccc1O`, which IC50 is on record?
Answer: The IC50 was > 79 µM (inactive).

Question: How did the IC50 turn out when `Cc1ccc(N=Cc2cc(Br)cc(Cl)c2O)cc1` was run?
Answer: Its IC50 is > 79 µM (inactive).

Question: `Cc1cc(C)c(OCC(=O)Nc2nc(-c3ccccn3)cs2)c(C)c1` was tested. Which IC50 did it give?
Answer: The IC50 was > 79 µM (inactive).

Question: Which IC50 does the source give for `CCOc1cccc(-c2nn3c(-c4ccccn4)nnc3s2)c1` here?
Answer: Its IC50 is > 79 µM (inactive).

Question: For `COc1ccc2[nH]c(=O)c(CNC3CCCCC3)cc2c1`, which IC50 is on record?
Answer: Its IC50 is > 79 µM (inactive).

Question: For `COc1ccc(-c2nn(-c3ccccc3)cc2C(=O)Nc2nccs2)cc1`, which IC50 is on record?
Answer: The IC50 was 12.1 µM.

Question: `CCCn1nc(C(=O)OCC(=O)c2c(N)n(C)c(=O)n(C)c2=O)c2ccccc2c1=O` was tested. Which IC50 did it give?
Answer: The IC50 was 56.6 µM (inactive).

Question: Which IC50 does the source give for `O=C1c2ccccc2NC(c2ccc(-c3cccc([N+](=O)[O-])c3)o2)N1O` (configuration not stated) here?
Answer: The IC50 was 28.4 µM.

Question: Which IC50 does the source give for `CC(C)c1cc(N2CCN(C(=O)c3ccco3)CC2)n2c(nc3ccccc32)c1C#N` here?
Answer: The IC50 was 28.5 µM.

Question: Which IC50 does the source give for `Cc1cc(C)c2c(N)c(C(=O)N/N=C/c3cccnc3)sc2n1` here?
Answer: The IC50 was 19.1 µM.

Question: `c1ccc(CN2CCN(CCCNc3ccc4nnc(-c5ccccc5)n4n3)CC2)cc1` was tested. Which IC50 did it give?
Answer: The IC50 was 13.8 µM.

Question: `C=CCc1ccccc1OCC(=O)N/N=C/c1ccc(OC(C)=O)cc1OC(C)=O` was tested. Which IC50 did it give?
Answer: The IC50 was > 79 µM (inactive).

Question: `CC(C)(C)OC(=O)N1CCC[C@H]1c1nnc(SCC(=O)Nc2ccc(Br)cc2)o1` was tested. Which IC50 did it give?
Answer: The IC50 was 17.7 µM.

Question: `O=C(O)c1nn(CCOc2ccccc2F)c(=O)c2ccccc12` was tested. Which IC50 did it give?
Answer: Its IC50 is 25.7 µM.

Question: How did the IC50 turn out when `Oc1c(Br)cc(Br)cc1C=Nc1cccc2ncccc12` was run?
Answer: Its IC50 is 27.3 µM.

Question: How did the IC50 turn out when `Cc1c(C#N)c(N)nc2c3c(sc12)NC(=O)CC3c1ccccc1` (configuration not stated) was run?
Answer: Its IC50 is > 79 µM (inactive).
